Results from patent publication US7521540B2, “CYR61 compositions and methods” (Munin Corporation, priority 1996, dated 2009).

Experiments:
HUVE cells = test: Fisp12 cell attachment assay, HUVE cells; assay type: cell-based, human; conditions: EDTA added to culture medium; cell type not stated
Protocol: The capacity of Fisp12 to affect cell adhesion was also investigated. Fisp12 cell attachment assays were performed essentially as described (Oliver et al., [1989]). 96-well immunological plates were coated for 16 hours at 4° C. with 20 μg/ml Cyr61, Fisp12 or fibronectim (Gibco BRL) in PBS containing 0.1 mg/ml BSA and blocked with 10 mg/ml BSA for 1 hour at room temperature. HUVE cells were plated at 10^4 cells/well in F12K media with 10% FBS (Hyclone Laboratories, Inc., Logan, Utah); NIH 3T3 fibroblasts were plated at 3×10^4 cells/well and Mv1Lu cells were plated at 5×10^4 cells/well in minimal essential medium (MEM) with 10% FBS. After 1 hour incubation cells were fixed, stained with methylene blue and quantified as described (Oliver et al., [1989]). Cell spreading was examined on cells plated on 100 mm polystyrene petri dishes coated with 2.5 ml of a 20 μg/ml solution of Cyr61, Fisp12 or fibronectin. 10^7 cells were plated on each dish and cell spreading was analyzed 90 minutes after plating by microscopy at 100× magnification.

[1] = test system: 1064SK primary human foreskin fibroblasts; test: Fibroblast adhesion assay (methylene blue, A620); assay type: cell-based
Protocol: The ability of Cyr61 to mediate cell adhesion in normal fibroblasts was investigated. Microtiter wells were coated with purified recombinant Cyr61 protein, and 1064SK primary human foreskin fibroblasts were allowed to adhere under serum-free conditions. […] 50 μl cell suspensions were plated on microtiter wells coated with varying concentrations (0.5-5.0 μg/ml) of Cyr61 protein. After incubation at 37° C. for 30 minutes, adherent cells were fixed and stained with methylene blue.
In another experiment, microtiter wells were coated with either BSA, Cyr61 (2 μg/ml), or vitronectin (VN; 0.5 μg/ml) and blocked with affinity-purified anti-Cyr61 antibodies for one hour at 37° C. before 1064SK cells were plated.
The effects of divalent cations in cell adhesion to Cyr61 was also investigated. […] Data are means from triplicate determinations. […] Inhibition by Ca^2+ is characteristic of adhesion through some members of the β1 family of integrins, including receptors that bind type I collagen, laminin, and vitronectin (integrins α2β1, α6β1, and αVβ1) in fibroblasts, as well as the lymphocyte-specific integrin αLβ2.
The effects of RGD peptides on Cyr61-mediated fibroblast binding was tested by plating cells in wells coated with Cyr61 (2 μg/ml). Type I collagen (2 μg/ml) or vitronectin (0.5 μg/ml), 2 mM GRGDSP or GRGESP peptide was then added.
Cells were also pre-incubated with 40 μg/ml monoclonal antibodies against the integrin α5 or the integrin αV subunits at room temperature for 30 minutes, then plated on wells coated with Cyr61 (2 μg/ml), vitronectin (0.5 μg/ml) or fibronectin (FN, 1 μg/ml). […] The data are means, representative of three experiments.
The 1064 SK cells were also analyzed using the monoclonal antibody JBIA, which binds the β1 integrin subunit. Cells were pre-incubated with the antibody (50 μg/ml) before plating on microtiter wells coated with Cyr61 (2 μg/ml), Type I collagen (2 μg/ml), or vitronectin (0.5 μg/ml). […] Data are means, representative of three experiments.
To identify the specific β1 integrin that mediates fibroblast adhesion to Cyr61, the inhibitory effects of function-blocking monoclonal antibodies were tested against various integrin α subunits. […] The data are means, representative of at least three experiments.

platelets = test: Platelet adhesion assay; assay type: cell-based, human
Protocol: Microtiter wells were coated with purified recombinant Fisp12/mCTGF or Cyr61, and the adhesion of isolated platelets to these proteins was detected with ^125I-mAb15, an anti-β3 monoclonal antibody (Frelinger et al., J. Biol. Chem 265:6346-6352 [1990]). Platelets were obtained from venous blood drawn from healthy donors and collected into acid-citrate-dextrose (ACD). Washed platelets were prepared by diffenential centrifugation as described (Kinlough-Rathbone et al. Thromb. Haemostas 2:291-308 [1997]), and finally resuspended in HEPES-Tyrode's buffer (5 mM HEPES, pH 7.35, 1 mM MgCl2, 1 mM CaCl2, 135 mM NaCl, 2.7 mM KCl, 11.9 mM NaHCO3, 1 mg/ml dextrose and 3.5 mg/ml BSA). The platelet concentration was adjusted to […].
Microtiter wells (Immulon 2 removawell strips, Dynex Technologies, Inc.) were coated with Cyr61, Fisp12/mCTGF, or fibrinogen (25 μg/ml, 50 μl/well) incubated overnight at 22° C., and then blocked with 3% BSA at 37° C. for 2 hours. Washed platelets were added to the wells (100 μl/well) in the presence and absence of platelet agonists and incubated at 37° C. for 30 minutes. The wells were washed with HEPES-Tyrode's buffer and adherent platelets were detected with ^125I-mAb15, an anti-β3 monoclonal antibody. Exposure to the labeled antibody ([…], 50 μl/well) proceeded for 1 hour at 22° C. After extensive washing with HEPES-Tyrode's buffer, bound radioactivity was determined by γ-counting. In inhibition studies, washed platelets were pre-incubated with blocking peptides or antibodies at 37° C. for 15 minutes prior to addition to microtiter wells.
The anti-β3 antibody was radioiodinated with carrier-free Na^125I (Amersham Corp.) using the IODO-BEADS iodination reagent (Pierce) to a specific activity of approximately 2 μCi/μg. […] As controls, BSA- and fibrinogen-coated (KabiVitrum Inc.) wells were also used. Initially, the adhesion of unactivated versus activated platelets to immobilized Fisp12/mCTGF and Cyr61 was compared. To ensure that plateltes were not activated during the washing procedures, PGl2 (100 nM), which inhibits activation by raising platelet cAMP levels, was added to the platelet suspensions. […]

αllbβ3 = biological target: T1, αllbβ3 (Homo sapiens, UniProt P05106+P08514); test: Solid-phase binding assay with purified integrin
T1 construct: from tissue; host or cells: outdated human platelets
Protocol: In these experiments, activated and unactivated αllbβ3 were purified from platelet lysates. Activated αllbβ3 was purified by RGD affinity chromatography, as described (Knezevic et al., J. Biol. Chem. 271:16416-16421 [1996]). Briefly, outdated human platelets were isolated by differential centrifugation and solubilized in lysis buffer (10 mM HEPES, pH 7.4, 0.15 M NaCl, containing 1 mM CaCl2, 1 mM MgCl2 100 μM leupeptin, 1 mM phenylmethylsulfonyl fluoride, 10 mM-ethylmaleimide, and 50 mM octylglucoside). The octylglucoside extract was incubated with 1 ml GRGDSPK-coupled Sepharose 4B overnight at 4° C. After washing with 15 ml column buffer (same as lysis buffer except it contained 25 mM octylglucoside), bound αllbβ3 was eluted with 1.7 mM H12 (2 ml) in column buffer. The H12 eluate was applied to a Sephacryl S-300 High Resolution column (1.5×95 cm), and αllbβ3 was eluted with 10 mM HEPES, pH 7.4, 0.15 M NaCl, 1 mM CaCl2, 1 mM MgCl2 and 25 mM octylglucoside.
Unactivated αllbβ3 was isolated by the method of Fitzgerald et al., Anal. Biochem. 151:169-177 (1985), with slight modifications. The flow-through fraction of the GRGDSPK-Sepharose column was applied to a concanavalin A-Sepharose 4B column (1×20 cm). Unbound proteins were washed with 50 ml column buffer, and bound αllbβ3 was then eluted with 100 mM mannose dissolved in column buffer. Fractions containing αllbβ3 were further purified on a Sephacryl S-300 High Resolution column
To perform the solid-phase binding assay, purified αllbβ3 was added to wells coated with either Cyr61 or Fisp12 (mCTGF) in the presence or absence of inhibitors and binding was allowed to proceed for 3 hours at 37° C. Unbound receptor was removed and the wells wee washed twice with HEPES-Tyrode's Buffer. The binding of purified αllbβ3 to Cyr61 or Fisp12/mCTGF immobilized onto microtiter wells was detected with ^125I-mAb15.

αVβ3 integrin = biological target: T2, αVβ3 integrin (Homo sapiens, UniProt P05106+P06756); test: Integrin binding assay (ligand-receptor ELISA)
T2 construct: αVβ3 integrin purification from HUVE cell lysates was done as described in Pytela et al; endogenous in cells; host or cells: HUVE cells
Protocol: αVβ3 integrin purification from HUVE cell lysates was done as described in Pytela et al., Meth. Enzynmol., 144:475-489 (1987). Briefly, 10^8 cells were lysed in 1 ml of PBS containing 1 mM CaCl2, 1 mM MgCl2, 0.5 mM PMSF and 100 mM octylglucoside. The lysate was passed four times through a 0.5 ml column containing RGDSPK Sepharose (prepared from the cyanogen bromide activated Sepharose CL 4B as described in Lam, S. C-T., J. Biol. Chem., 267:5649-5655 (1992). The column was washed with 10 ml of the lysis buffer and the bound protein was eluted with 2 ml of the same buffer containing 1 mM RGDS peptide at room temperature. The αVβ3 integrin was dialyzed against PBS containing 1 mM CaCl2, 1 mM MgCl2, 5 mM octylglucoside and 0.1 mM PMSF with three changes of the dialysis buffer to remove the RGDS peptide. The protein was stored in aliquots at −70° C. The purity of the integrin was determined by SDS-PAGE under non-reducing conditions, followed by silver staining.
The integrin binding assay was developed in accordance with the disclosures in Brooks et al., Cell 85:683-693 (1996), and Lam, S. C-T (1992). Approximately 50 ng of the integrin in a total volume of 50 μl were added per well of 96-well immunological Pro-Bind plates (Falcon) and incubated overnight at 4° C. Non-specific sites were blocked with 20 mg/ml BSA in the same buffer and washed four times in that buffer. Treated plates were incubated with 1 μg/ml Cyr61 or 0.1 μg/ml vitronectin for 3 hours at room temperature. […] The final dilution of the LM609 ascites fluid was 1:200. Bound proteins were detected by specific polyclonal antisera (anti-Cyr61 antiserum was diluted 1:500 and anti-vitronectin antiserum was diluted 1:1000 in PBS containing 1 mM CaCl2, 1 mM MgCl2, and 5 mg/ml BSA) followed by a secondary antibody-horseradish peroxidase conjugate (1:20000 in the same buffer). […] Horseradish peroxidase (HRP) was detected with an HRP immunoassay kit (Bio-Rad Laboratories). The colorimetric reaction was developed for 15-30 minutes at room temperature, stopped by the addition of H2SO4, and the absorbance at 450 nm was measured. […]

Limb mesenchymal cells [2] = test: Limb bud mesenchymal cell attachment; assay type: cell-based, mouse; conditions: within 1 hour of plating
Protocol: Cyr61, fibronectin (Gibco), or tenascin (Gibco) were diluted in 0.1% protease-free bovine serum albumin (BSA) in PBS with 0.5 mM PMSF, to a final concentrations of 10 or 50 μg/ml. A 10 μl drop/well was placed in a non-tissue culture treated 24-well plate (Corning), and incubated at room temperature for 2 hours. The wells were blocked with 1% BSA in PBS for 1 hour at room temperature, and rinsed with serum-free MEM (Modified Eagle's Medium). Limb mesenchymal cells, suspended at 5×10^5 cell/ml in serum-free MEM, were added at a volume of 400 μl/well, and incubated at 37° C., 5% CO2 for 1 or 3 hours. At each time point, the cell suspension was removed, the wells were rinsed with MEM and the remaining adherent cells were photographed.

Limb mesenchymal cells [3] = conditions: 50 μg/ml (200 nM), literature; cited from earlier work
[4] = EDTA 5 mM, RGDS 0.5 mM, LM609 ascites 1:200

T2 sequence (P06756 31-889 limits assumed): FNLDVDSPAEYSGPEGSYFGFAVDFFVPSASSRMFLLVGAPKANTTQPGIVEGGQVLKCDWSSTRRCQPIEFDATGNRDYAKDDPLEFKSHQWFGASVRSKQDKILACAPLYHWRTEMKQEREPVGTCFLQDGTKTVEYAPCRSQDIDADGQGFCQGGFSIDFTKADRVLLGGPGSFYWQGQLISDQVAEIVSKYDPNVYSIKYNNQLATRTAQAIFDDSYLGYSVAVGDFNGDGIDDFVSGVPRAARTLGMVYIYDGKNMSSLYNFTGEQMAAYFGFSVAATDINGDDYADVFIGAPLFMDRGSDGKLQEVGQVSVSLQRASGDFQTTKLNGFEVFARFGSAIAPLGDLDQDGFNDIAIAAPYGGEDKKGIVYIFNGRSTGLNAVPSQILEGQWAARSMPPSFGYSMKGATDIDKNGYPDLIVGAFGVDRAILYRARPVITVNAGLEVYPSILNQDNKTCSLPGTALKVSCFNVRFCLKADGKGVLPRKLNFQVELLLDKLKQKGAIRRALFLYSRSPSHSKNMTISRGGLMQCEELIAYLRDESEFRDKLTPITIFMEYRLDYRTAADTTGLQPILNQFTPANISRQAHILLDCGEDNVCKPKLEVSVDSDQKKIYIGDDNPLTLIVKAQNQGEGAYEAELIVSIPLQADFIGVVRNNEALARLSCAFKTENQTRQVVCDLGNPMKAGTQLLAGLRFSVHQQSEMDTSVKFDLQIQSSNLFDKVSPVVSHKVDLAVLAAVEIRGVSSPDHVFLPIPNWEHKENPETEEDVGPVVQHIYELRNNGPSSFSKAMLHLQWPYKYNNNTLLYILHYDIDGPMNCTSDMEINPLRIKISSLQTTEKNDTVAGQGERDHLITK
T2 sequence (P06756 891-1048 partner limits assumed): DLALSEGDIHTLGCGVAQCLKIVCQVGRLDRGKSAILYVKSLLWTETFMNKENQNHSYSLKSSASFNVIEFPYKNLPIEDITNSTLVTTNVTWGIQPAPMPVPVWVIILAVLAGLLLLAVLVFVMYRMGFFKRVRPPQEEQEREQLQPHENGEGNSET
T2 sequence (P05106 27-788): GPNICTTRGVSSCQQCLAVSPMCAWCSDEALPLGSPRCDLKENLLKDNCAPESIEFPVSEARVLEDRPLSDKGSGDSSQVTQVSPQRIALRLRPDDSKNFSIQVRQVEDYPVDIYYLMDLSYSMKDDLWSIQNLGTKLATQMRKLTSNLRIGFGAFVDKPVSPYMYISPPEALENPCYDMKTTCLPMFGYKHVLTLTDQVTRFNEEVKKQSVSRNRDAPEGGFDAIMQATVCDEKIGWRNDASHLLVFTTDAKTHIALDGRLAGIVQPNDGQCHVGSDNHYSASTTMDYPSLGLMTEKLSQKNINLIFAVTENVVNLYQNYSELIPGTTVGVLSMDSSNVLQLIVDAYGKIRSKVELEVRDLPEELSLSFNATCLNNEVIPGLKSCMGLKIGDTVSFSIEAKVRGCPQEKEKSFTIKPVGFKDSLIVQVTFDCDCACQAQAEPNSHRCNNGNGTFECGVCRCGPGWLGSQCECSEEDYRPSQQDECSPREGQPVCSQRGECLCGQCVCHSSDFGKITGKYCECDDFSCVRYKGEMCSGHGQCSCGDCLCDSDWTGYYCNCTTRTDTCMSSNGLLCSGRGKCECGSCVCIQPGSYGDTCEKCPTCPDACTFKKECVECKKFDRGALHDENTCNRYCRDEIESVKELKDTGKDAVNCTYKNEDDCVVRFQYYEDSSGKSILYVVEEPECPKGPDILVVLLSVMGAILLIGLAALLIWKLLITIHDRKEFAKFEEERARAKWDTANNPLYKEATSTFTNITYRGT

Compound | effect of agent on activated platelet adhesion to Cyr61 and Fisp12/mCTGF (platelets) | effect of agent on adhesion of ADP-activated platelets to fibrinogen (platelets) | effect of agent on activated αllbβ3 binding to Fisp12/mCTGF and Cyr61 (αllbβ3) | other results
O=C(O)CN(CCN(CC(=O)O)CC(=O)O)CC(=O)O [EDTA, Ethylenediamine tetraacetic acid] | completely abolished platelet adhesion to both proteins | completely inhibited |  | effect of agent on Fisp12-mediated cell attachment (HUVE cells): inhibited; 1064SK adhesion to Cyr61-coated wells with agent ([1]; Cyr61 2 μg/ml, agent at the level stated in the block, Mg2+ 5.0 mM after EDTA): about 0.12 A620; 1064SK adhesion to Type I collagen-coated wells with agent ([1]; Type I collagen 2 μg/ml): 0.10 A620; 1064SK adhesion to vitronectin-coated wells with agent ([1]; vitronectin 0.5 μg/ml): 0.05 A620
H-HHLGGAKQAGDV-OH [H12] | inhibited platelet adhesion to Cyr61 and Fisp12/mCTGF | completely inhibited | effectively inhibited | 
RGDS |  | completely inhibited | specifically blocked | effect of agent on Cyr61 interaction with αVβ3 (αVβ3 integrin; [4]): inhibited; effect of agent on vitronectin interaction with αVβ3 (αVβ3 integrin; [4]): inhibited
echistatin | completely blocked platelet adhesion to both proteins | completely inhibited | effectively inhibited | 
tenascin: ECM protein (Gibco) |  |  |  | attachment morphology of limb mesenchymal cells (Limb mesenchymal cells [2]): adhered as clusters of rounded cells; increase of chondrogenesis in micromass cultures (Limb mesenchymal cells [3]): 3 fold
vitronectin: Human plasma vitronectin, serum spreading factor |  |  |  | binding to immobilized αVβ3 integrin (αVβ3 integrin; 1 μg/ml Cyr61 or 0.1 μg/ml vitronectin): bound to the immobilized integrin; inhibition by anti-α6 antibody of binding mediated by the coated protein ([1]; anti-α6 20 μg/ml): 9%
